Experimental data taken from publication PMC12746157, “Light-Regulated Agonists Spatiotemporally Activating the Vitamin D Receptor Mitigate Psoriasis-like Inflammation in Mice without Inducing Hypercalcemia” (ACS Central Science, 2025).

Tests used:
Assay type in all cases: physicochemical
[1] = Photostationary state (PSS) determination by HPLC-MS in aqueous assay buffer; details: 21 °C, HPLC-MS, 60 μM, aqueous buffer 0.6% DMSO
Method: (§1) The UV–vis absorbance spectra of all molecules were measured in the dark and after the application of light of different wavelengths ranging from 365 to 770 nm (Figure A and Figures S1–S3). […] Consequently, violet/UV light below 405 nm efficiently promoted photoisomerization, which produced a dramatic decrease in the π-π* band and a significant increase in the n-π* band at around 445 nm (Table ). […] The proportion of molecules at the PSS in trans isomer upon constant illumination with light at 525 nm and cis at 365 nm was in general above 50%, reaching a remarkable >99% for compound 11d (Table and Figures S4 and S5). […] The greater stability of the trans isomer was consistent with previous quantum mechanical and molecular mechanics predictions. Measuring the photoisomerization properties of compound PhotoVDRM allowed us to determine the photoisomerization quantum yields of the compound by solving a differential equation for photoisomerization. We used MATLAB to perform regression and arrive at the following photoisomerization quantum yields: ϕ365 nm (trans) = 0.0427, ϕ365 nm (cis) = 0.0501, ϕ470 nm (trans) = 0.1857, and ϕ470 nm (cis) = 0.2281 (Figure S9). Compound PhotoVDRM was also evaluated in aqueous buffer used for pharmacological experiments (0.5% DMSO) showing a thermal relaxation of 3 h, almost 7 times faster than in pure DMSO (Figure B). […] A deeper photocharacterization of PhotoVDRM allowed us to measure the kinetics of photoconversion upon constant illumination with two wavelengths and three light intensities (Figure D and Figure S10). […] Indeed, with LED devices producing light at intensities as low as 0.05 mW/mm^2 we were able to transform trans to cis in around 15.5 s. This time was reduced to 6 and 2 s when the light intensity was increased to 0.15 and 0.75 mW/mm^2. […] Therefore, we proceeded to test the ability of the chemical library to activate the VDR under different light conditions.
Photostationary state (PSS) determination. In a transparent vial, solutions of the compounds were prepared at a concentration of 60 µM from a 10 mM stock in DMSO, using the assay buffer of pharmacological experiments for dilution. Prior to illumination, a volume of 500 µL was transferred to an amber vial for the "dark" sample. The same procedure was repeated after exposing the transparent vial containing the 60 µM solutions to the following light conditions:
365nm for 3 minutes and 525nm for 3 minutes. […]
difference on isomeric proportions. For each sample, 20 µL was analyzed by HPLC-MS, and the isomer ratios were determined at the isosbestic point.
Isosbestic point determination. The solvent percentage for the elution of each isomer were calculated based on their retention times from HPLC analysis. Subsequently, 50 µM solutions were prepared from the 10 mM DMSO stock solution of each compound using the previously determined HPLC solvent mixture. The UV spectrum for each solution was recorded after illumination at 365 nm (30 seconds), at 400 nm (30 seconds), and at 525 nm (30 seconds). The spectra were overlaid to identify the isosbestic point of maximum intensity.
HPLC conditions. Analytical HPLC was performed on a Thermo Ultimate 3000SD (Thermo Scientific Dionex) coupled to a PDA detector and Mass Spectrometer LTQ XL ESI-ion trap (Thermo Scientific). Cromatographic separations were performed using a ZORBAX Eclipse Plus C18 (4.6 x 150mm; 3.5µm) column. The mobile phase consisted of an isocratic mixture of solvent A (water with 0.05% of formic acid) and solvent B (acetonitrile with 0.05% formic acid) at a 3:7 ratio for compounds 10a-d and a 2:3 ratio for compounds 11a-d and 12a-d. […]

[2] = UV-Vis absorption spectra and thermal relaxation of the cis isomers in DMSO; details: 60 μM in 100% DMSO, 37 °C
Method: as §1
2. Photochemical characterization. […]
(§2) (200 µL per well). The absorption spectra were recorded from 300 to 600 nm with 2 nm fixed intervals using a Tecan Spark 20M Multimode microplate reader. Initial measurements were performed in the dark, followed by spectra acquired immediately after each 3 min period of light irradiation at different wavelengths using 96-well LED array plates (LEDA Teleopto). Theoretical absorbance spectra corresponding to the pure cis isomer (100%) of each compound were calculated in order to obtain the theoretical percentage of cis isomer at each wavelength, according to the method described by Ernst Fischer (1967). Thermal relaxation kinetics of the experimental cis isomers were assessed in quartz cuvettes (10 mm optical path) containing freshly prepared 50 […]
Dark state absorbance at 365 nm was recorded at 37
ºC using a ThermoFisher Evolution 350 UV-Vis spectrophotometer. Samples were then irradiated for 3 minutes at 365 nm with a CoolLED pE-4000 light sourceto induce trans → cis photoisomerization.. Absorbance at 365 nm was subsequently monitored over 48 h: every 15 min during the first 24 h, and every 60 min during the following 24 h. Relaxation half-lives were determined by fitting the absorbance-time data to a […] exponential model using GraphPad Prism v10.4.1. […]

[3] = Proportions of cis and trans at the photostationary state in DMSO from absorbance spectra (Ernst Fischer method)
Method: 2. Photochemical characterization.
as §2, with “A 50 µM solution of each compound in DMSO was dispensed into a transparent 96-well plate (200” for “(200”, “(1967).” for “(1967). Thermal relaxation kinetics of the experimental cis isomers were assessed in quartz cuvettes (10 mm optical path) containing freshly prepared 50”
Table S6. Proportions of cis and trans at the photostationary state in DMSO. […]

Cc1cc(/N=N/c2cccc(-c3ccc(CO)cc3C)c2)ccc1OCC(O)C(C)(C)C (stereo not shown) [Compound 12c]
PSS365 (% cis) ([1]; 3 min illumination 365 nm): 87% | PSS525 (%trans) ([1]; 3 min illumination 525 nm): 86% | t 1/2 (thermal relaxation of cis) [2]: 23.2 h | λn−π* (cis) ([2]; after illumination): 444 nm | λπ–π* (trans) ([2]; dark): 364 nm | %cis at the photostationary state ([3]; 365 nm): 96,95% | %trans at the photostationary state ([3]; 365 nm): 3,05% | %cis at the photostationary state ([3]; 380 nm): 95,69% | %trans at the photostationary state ([3]; 380 nm): 4,31% | %cis at the photostationary state ([3]; 405 nm): 59,74% | %trans at the photostationary state ([3]; 405 nm): 40,26% | %cis at the photostationary state ([3]; 420 nm): 56,13% | %trans at the photostationary state ([3]; 420 nm): 43,87% | %cis at the photostationary state ([3]; 470 nm): 28,95% | %trans at the photostationary state ([3]; 470 nm): 71,05% | %cis at the photostationary state ([3]; 500 nm): 30,48% | %trans at the photostationary state ([3]; 500 nm): 69,52% | %cis at the photostationary state ([3]; 530 nm): 26,87% | %trans at the photostationary state ([3]; 530 nm): 73,13%
